ChEMBL document CHEMBL5214948, “Boronic Acid: A Novel Pharmacophore Targeting Src Homology 2 (SH2) Domain of STAT3” (J Med Chem, 2022)

What was measured:
MGC-803 = test: Antiproliferative activity against human MGC-803 cells assessed as reduction in cell viability measured after 72 hrs by CCK-8 assay; assay type: functional, cell-based; settings: MGC-803, 72 h
AGS = test: Antiproliferative activity against human AGS cells assessed as reduction in cell viability incubated for 72 hrs by CCK-8 assay; assay type: functional, cell-based

IC50 (MGC-803) [µM]	IC50 (AGS) [µM]	Structure (SMILES)
4.83	1.98	O=C([C@H]1CCN1S(=O)(=O)c1c(F)c(F)c(F)c(F)c1F)N(Cc1ccc(C2CCCCC2)cc1)c1ccc(B(O)O)cc1
4.71	2.57	C[C@@H](C(=O)N(Cc1ccc(C2CCCCC2)cc1)c1ccc(B(O)O)cc1)N(C)S(=O)(=O)c1c(F)c(F)c(F)c(F)c1F
6.07	2.78	O=C([C@H]1CCCN1S(=O)(=O)c1c(F)c(F)c(F)c(F)c1F)N(Cc1ccc(C2CCCCC2)cc1)c1ccc(B(O)O)cc1
